Assay results: patent US7812008B2, “9-substituted tetracyclines” (Wyeth LLC, priority 2005, dated 2010)
Values after ≈ are worked out from the molar mass of the structure shown. Like-named read-outs stand apart in the source and are kept apart here.

Key:
[1] = tested on: S. pneumoniae* GC1894 (Clinical); assay: MIC broth microdilution, S. pneumoniae GC1894 (Clinical); type: cell-based; conditions: 18-22 hours at 35° C.
Description: (§1) Methods for in Vitro Antibacterial Evaluation
(§2) The minimum inhibitory concentration (MIC)
(§3) Antimicrobial susceptibility testing. The in vitro activities of representative examples of antibiotics of the invention are determined by the broth microdilution method as recommended by the National Committee for Clinical Laboratory Standards (NCCLS) (1). Mueller-Hinton II broth (MHBII)(BBL Cockeysville, Md.) is the medium employed in the testing procedures. Microtiter plates containing serial dilutions of each antimicrobial agent are inoculated with each organism to yield the appropriate density (10^5 CFU/ml) in a 100 μl final volume. The plates are incubated for 18-22 hours at 35° C. in ambient air. […] NCCLS. 2000. Methods for Dilution Antimicrobial Susceptibility Tests for Bacteria That Grow Aerobically; Approved Standards: M7-A5, vol. 20. National Committe for Clinical Laboratory Standards, Wayne, Pa.

[2] = tested on: Staphylococcal aureus Smith M P; assay: MIC reported in Table 2 beside the in vivo ED50; type: cell-based; conditions: Staphylococcus aureus, infecting strain S. aureus Smith MP
Description: Antimicrobial susceptibility testing. The in vitro activities of representative examples of antibiotics of the invention are determined by the broth microdilution method as recommended by the National Committee for Clinical Laboratory Standards (NCCLS) (1). Mueller-Hinton II broth (MHBII)(BBL Cockeysville, Md.) is the medium employed in the testing procedures. Microtiter plates containing serial dilutions of each antimicrobial agent are inoculated with each organism to yield the appropriate density (10^5 CFU/ml) in a 100 μl final volume. The plates are incubated for 18-22 hours at 35° C. in ambient air. […] NCCLS. 2000. Methods for Dilution Antimicrobial Susceptibility Tests for Bacteria That Grow Aerobically; Approved Standards: M7-A5, vol. 20. National Committe for Clinical Laboratory Standards, Wayne, Pa. In Vivo Antibacterial Evaluation: The therapeutic effects of representative examples of the invention are determined against acute lethal infection with Staphylococcal aureus Smith M P, Female mice, strain CD-1 (Charles River Laboratoties), ca. 20 grams, are challenged by an intraperitoneal injection of sufficient bacteria (suspended in broth or hog mucin) to kill non-treated controls within 24-28 hours. Antibacterial agents, contained in 0.5 ml of 0.2% aqueous agar, are administered subcutaneously or orally 30 minutes after injection. When an oral dosing schedule is used, animal are deprived of food for 5 hours before and 2 hours after injection. Five mice are treated at each dose level. The 7 day survival ratios from 3 separate tests are pooled for calculation of median effective dose (ED50).

[3] = tested on: E. faecalis GC4555 (ATCC Control); assay: MIC broth microdilution, E. faecalis GC4555 (ATCC Control); type: cell-based; conditions: MHBII, 18-22 hours at 35° C.
Description: as §1, §2, §3

[4] = tested on: E. coli GC1073 (tet(B)); assay: MIC broth microdilution, E. coli GC1073 (tet(B)); type: cell-based; conditions: MHBII, 18-22 hours at 35° C.
Description: as §1, §2, §3

[5] = tested on: S. pyogenes* GC4563 (Clinical); assay: MIC broth microdilution, S. pyogenes GC4563 (Clinical); type: cell-based; conditions: 18-22 hours at 35° C.
Description: as §1, §2, §3

[6] = tested on: Staphylococcal aureus Smith M P; assay: In vivo antibacterial evaluation, acute lethal infection in mice; conditions: Mus musculus; single oral dose 30 minutes after intraperitoneal challenge; female CD-1 mice; 7 day survival ratios, 3 tests pooled; read-out: SOD* ED50
Description: In Vivo Antibacterial Evaluation: The therapeutic effects of representative examples of the invention are determined against acute lethal infection with Staphylococcal aureus Smith M P, Female mice, strain CD-1 (Charles River Laboratoties), ca. 20 grams, are challenged by an intraperitoneal injection of sufficient bacteria (suspended in broth or hog mucin) to kill non-treated controls within 24-28 hours. Antibacterial agents, contained in 0.5 ml of 0.2% aqueous agar, are administered subcutaneously or orally 30 minutes after injection. When an oral dosing schedule is used, animal are deprived of food for 5 hours before and 2 hours after injection. Five mice are treated at each dose level. The 7 day survival ratios from 3 separate tests are pooled for calculation of median effective dose (ED50).

[7] = tested on: C. albicans GC3066 ATCC (Control); assay: MIC broth microdilution, C. albicans GC3066 ATCC (Control); type: cell-based; conditions: 18-22 hours at 35° C.
Description: as §1, §2, §3

[8] = tested on: Staphylococcal aureus Smith M P; assay: In vivo antibacterial evaluation, acute lethal infection in mice; conditions: Mus musculus, iv, 168 h; single intraveneous dose; female CD-1 mice; 7 day survival ratios, 3 tests pooled; read-out: SIV* ED50
[9] = tested on: M. catarrhalis* GC6907 (Clinical); assay: MIC broth microdilution, M. catarrhalis GC6907 (Clinical); type: cell-based; conditions: 18-22 hours at 35° C.
Description: as §1, §2, §3

[10] = tested on: E. coli GC4559 (parent GC4560); assay: MIC broth microdilution, E. coli GC4559 (parent GC4560); type: cell-based; conditions: MHBII, 18-22 hours at 35° C.
Description: as §1, §2, §3

[11] = tested on: E. coli GC2270 (tet(M)); assay: MIC broth microdilution, E. coli GC2270 (tet(M)); type: cell-based; conditions: MHBII, 18-22 hours at 35° C.
Description: as §1, §2, §3

[12] = tested on: E. faecalis GC2267 (tet(L) + (M) + (S)); assay: MIC broth microdilution, E. faecalis GC2267 (tet(L) + (M) + (S)); type: cell-based; conditions: MHBII, 18-22 hours at 35° C.
Description: as §1, §2, §3

[13] = tested on: S. aureus GC6466 (tet(M)); assay: MIC broth microdilution, S. aureus GC6466 (tet(M)); type: cell-based; conditions: MHBII, 18-22 hours at 35° C.
Description: as §1, §2, §3

[14] = tested on: S. aureus GC1131 (Clinical); assay: MIC broth microdilution, S. aureus GC1131 (Clinical); type: cell-based; conditions: MHBII, 18-22 hours at 35° C.
Description: as §1, §2, §3

[15] = tested on: S. pneumoniae* GC4465 (Clinical); assay: MIC broth microdilution, S. pneumoniae GC4465 (Clinical); type: cell-based; conditions: 18-22 hours at 35° C.
Description: as §1, §2, §3

[16] = tested on: S. aureus GC4536 (Smith MP -In Vivo); assay: MIC broth microdilution, S. aureus GC4536 (Smith MP -In Vivo); type: cell-based; conditions: MHBII, 18-22 hours at 35° C.
Description: as §1, §2, §3

[17] = tested on: S. aureus GC2216 (ATCC Control); assay: MIC broth microdilution, S. aureus GC2216 (ATCC Control); type: cell-based; conditions: MHBII, 18-22 hours at 35° C.
Description: as §1, §2, §3

[18] = tested on: E. coli GC4560 (IMP mutant); assay: MIC broth microdilution, E. coli GC4560 (IMP mutant); type: cell-based; conditions: MHBII, 18-22 hours at 35° C.
Description: as §1, §2, §3

[19] = tested on: S. aureus GC1079 (tet(K)); assay: MIC broth microdilution, S. aureus GC1079 (tet(K)); type: cell-based; conditions: MHBII, 18-22 hours at 35° C.
Description: as §1, §2, §3

[20] = tested on: S. aureus GC6467 (tet(M) + (K)); assay: MIC broth microdilution, S. aureus GC6467 (tet(M) + (K)); type: cell-based; conditions: MHBII, 18-22 hours at 35° C.
Description: as §1, §2, §3

[21] = tested on: E. coli GC2203 (ATCC Control); assay: MIC broth microdilution, E. coli GC2203 (ATCC Control); type: cell-based; conditions: MHBII, 18-22 hours at 35° C.
Description: as §1, §2, §3

[22] = tested on: E. faecalis GC2242 (Van-resistant); assay: MIC broth microdilution, E. faecalis GC2242 (Van-resistant); type: cell-based; conditions: MHBII, 18-22 hours at 35° C.
Description: as §1, §2, §3

[23] = tested on: H. influenzae<> GC6896 (ATCC Control); assay: MIC broth microdilution, H. influenzae GC6896 (ATCC Control); type: cell-based; conditions: 18-22 hours at 35° C.
Description: as §1, §2, §3

| SMILES | minimum inhibitory concentration (MIC) [1] | MIC [2] [µg/mL] | minimum inhibitory concentration (MIC) [3] | minimum inhibitory concentration (MIC) [4] | minimum inhibitory concentration (MIC) [5] | ED50 [6] [mg/kg] | minimum inhibitory concentration (MIC) [7] | ED50 [8] [mg/kg] | minimum inhibitory concentration (MIC) [9] | minimum inhibitory concentration (MIC) [10] | minimum inhibitory concentration (MIC) [11] | minimum inhibitory concentration (MIC) [12] | minimum inhibitory concentration (MIC) [13] | minimum inhibitory concentration (MIC) [14] | minimum inhibitory concentration (MIC) [15] | minimum inhibitory concentration (MIC) [16] | minimum inhibitory concentration (MIC) [17] | minimum inhibitory concentration (MIC) [18] | minimum inhibitory concentration (MIC) [19] | minimum inhibitory concentration (MIC) [20] | also measured |
| --- | --- | --- | --- | --- | --- | --- | --- | --- | --- | --- | --- | --- | --- | --- | --- | --- | --- | --- | --- | --- | --- |
| CN(C)c1ccc(O)c2c1C[C@H]1C[C@H]3[C@H](N(C)C)C(O)=C(C(N)=O)C(=O)[C@@]3(O)C(O)=C1C2=O [Minocycline, 7-(dimethylamino)-6-demethyl-6-deoxytetracycline, reference compound] | 4 | 0.25 (≈ 0.546 µM) | 4 | 16 | <0.06 | 0.6 to 0.93 | >64 | 0.37 to 0.42 | <0.06 | 2 | 64 | 16 | 8 | – | – | – | – | – | – | – | – |
| CN(C)c1cc(NC(=O)CN2CCCCO2)c(O)c2c1C[C@H]1C[C@H]3[C@H](N(C)C)C(O)=C(C(N)=O)C(=O)[C@@]3(O)C(O)=C1C2=O [Example 8, (4S,4aS,5aR,12aS)-4,7-bis(dimethylamino)-3,10,12,12a-tetrahydroxy-9-[(1,2-oxazinan-2-ylacetyl)amino]-1,11-dioxo-1,4,4a,5,5a,6,11,12a-octahydrotetracene-2-carboxamide] | 0.50 | 2 (≈ 3.34 µM) | 2 | >64 | 1 | 3.59 | >64 | 0.56 | 1 | >64 | >64 | 8 | 2 | 4 | 1 | 2 | 2 | 2 | 16 | 64 | minimum inhibitory concentration (MIC) [21]: >64; minimum inhibitory concentration (MIC) [22]: 2; minimum inhibitory concentration (MIC) [23]: 64 |
| CC(C)N(O)CC(=O)Nc1cc(N(C)C)c2c(c1O)C(=O)C1=C(O)[C@]3(O)C(=O)C(C(N)=O)=C(O)[C@@H](N(C)C)[C@@H]3C[C@@H]1C2 [Example 2, (4S,4aS,5aR,12aS)-4,7-bis(dimethylamino)-3,10,12,12a-tetrahydroxy-9-[(N-hydroxy-N-isopropylglycyl)amino]-1,11-dioxo-1,4,4a,5,5a,6,11,12a-octahydrotetracene-2-carboxamide] | 0.25 | 1 (≈ 1.7 µM) | 1 | 16 | 0.25 | 18 | >64 | 0.25 to 0.5 | 1 | 8 | 4 | 4 | 4 | 4 | 0.25 | 4 | 2 | 0.25 | 8 | 16 | minimum inhibitory concentration (MIC) [21]: 2; minimum inhibitory concentration (MIC) [22]: 2; minimum inhibitory concentration (MIC) [23]: 2 |
| CN(C)c1cc(NC(=O)CN(O)C2CCCCC2)c(O)c2c1C[C@H]1C[C@H]3[C@H](N(C)C)C(O)=C(C(N)=O)C(=O)[C@@]3(O)C(O)=C1C2=O [Example 1, (4S,4aS,5aR,12aS)-9-[(N-cyclohexyl-N-hydroxyglycyl)amino]-4,7-bis(dimethylamino)-3,10,12,12a-tetrahydroxy-1,11-dioxo-1,4,4a,5,5a,6,11,12a-octahydrotetracene-2-carboxamide] | 0.25 | 1 (≈ 1.59 µM) | 1 | 16 | 0.12 | 7.75 | >64 | 1.56 | 0.50 | 8 | 8 | 16 | 8 | 4 | 0.25 | 4 | 4 | 0.25 | 16 | >64 | minimum inhibitory concentration (MIC) [21]: 2; minimum inhibitory concentration (MIC) [22]: 2; minimum inhibitory concentration (MIC) [23]: 2 |
| CN(C)c1cc(NC(=O)CN(O)Cc2ccccc2)c(O)c2c1C[C@H]1C[C@H]3[C@H](N(C)C)C(O)=C(C(N)=O)C(=O)[C@@]3(O)C(O)=C1C2=O [Example 6, (4S,4aS,5aR,12aS)-9-[(N-benzyl-N-hydroxyglycyl)amino]-4,7-bis(dimethylamino)-3,10,12,12a-tetrahydroxy-1,11-dioxo-1,4,4a,5,5a,6,11,12a-octahydrotetracene-2-carboxamide] | 0.25 | 2 (≈ 3.15 µM) | 1 | 32 | 0.25 | > 16 | >64 | > 4 | 0.50 | 8 | 16 | 8 | 2 | 4 | 0.12 | 2 | 2 | 0.25 | 8 | 64 | minimum inhibitory concentration (MIC) [21]: 16; minimum inhibitory concentration (MIC) [22]: 2; minimum inhibitory concentration (MIC) [23]: 2 |
